Experimental data as given in PMC4761914, “Improvement of pyrazolo[3,4-d]pyrimidines pharmacokinetic properties: nanosystem approaches for drug delivery” (Scientific Reports, 2016).
Where two headings read alike, the source gives them in different places.

Key:
[1] = Entrapment efficiency by HPLC-UV-MS after disruption of nanoparticles; format: physicochemical; conditions: compound encapsulated in albumin nanoparticles
Description: The albumin nanoparticles were prepared by mixing 100 μL of compound solution in EtOH (1 mg/mL) with 900 μL of HSA solution in PBS (pH 7.4, 25 mM) (5 mg/mL)[52]. Cysteine was added up to a final concentration of 5 mg/mL, and the resulting solution was kept at 37 °C, for 45 min. The excess of cysteine was eliminated by dialysis using a cellulose membrane (capacity 60 mL/ft, cut-off 14 kDa, diameter 16 mm, width 25mm). D,L-glyceraldehyde was added to this solution, to a final concentration of 5 μM[53]. The sample was then filtered through a nylon syringe filter with pores of 0.2 μm (Acrodisc 25 mm Syringe Filter) to obtain a sterile solution of the drug-albumin nanoparticles. The concentration of the compound in the final sample was determined by HPLC-UV-MS (HPLC-UV-MS method in the supporting material), after denaturation of the protein by acetonitrile and centrifugation (4500 rpm, 15 min, 4 °C).
The method developed by A.D. Bangham, namely thin layer evaporation, was used for the preparation of LP-1, LP-2, LP-3 and LP-4. Lipids DPPC, Chol and MPEG-2000-DPPE Na (molar ratio 20:10:1) were dissolved in a mixture of CHCl3:MeOH = 3:1 (3 mL, round-bottomed flask). A 1 mM solution of each compound (1, 2, 3, 4) in CHCl3:MeOH = 3:1 was prepared. […] The drug concentration was determined after disruption of liposomes by treatment with ethanol at 40 °C (1:1 = v/v). The compound was extracted and quantified by HPLC-UV-MS (HPLC-UV-MS method in the supporting material). […]
E.E.%c NDd NDd NDd NDd NDd NDd NDd NDd NDd NDd NDd aCalculated on the basis of the total amount of compound dissolved in the organic solvent; bat 37 °C; c at 45°C. dND: compound not detected after filtration 0.2 µm syringe filter. […]
The percentage of entrapment efficacy was calculated with the following equation: […]
where, Fi is the concentration of compound determined in the nano-preparation (evaluated by HPLC-UV-MS, after disruption of nanoparticles) and Ft is the theoretical final concentration (Calculated on the basis of the total amount of compound dissolved in the organic solvent). […]

SH-SY5Y NB cells = assay: Antiproliferative activity / cytotoxicity, Trypan blue assay; format: cell-based; conditions: Homo sapiens
Description: In vitro experiments were carried out using the human NB cell line SH-SY5Y. Cells were purchased from American Type Culture Collection (ATCC, Manassas, VA, USA) and were cultured in DMEM/F12 1:1 medium supplemented with 10% FBS, 2 mM L-glutamine and 10000 units/mL Penicillin/Streptomycin at 37 °C in 5% CO2 atmosphere. In order to determine the antiproliferative effect of drugs (1–4) and nanosystems, SH-SY5Y cells were seeded at 10^5 cells/well density and treated with albumin (PBS solution, pH 7.4) or empty liposomes (0.9% NaCl solution, pH 7.4), compounds encapsulated with albumin (PBS solution, pH 7.4) or liposomes LP-1, LP-3 and LP-4 (0.9% NaCl solution, pH 7.4) and free compounds 1, 3 and 4 (DMSO solution) at increasing concentrations (0.1 μM, 1.0 μM, 10 μM and 50 μM). IC50 determination for LP-2 and compound 2 was performed testing the following concentrations as well: 0.01 μM, 0.05 μM, 0.5 μM and 5 μM. The cultures were maintained at 37 °C in 5% v/v CO2 for 24, 48 and 72 h. Cell number and viability were evaluated using the Bürker chamber, after treatment with Trypan Blue. IC50 was calculated by GraphPad Prism 6.0 software using the best fitting sigmoid curve.

[2] = set-up: method as in PMID 25469771, PMID 21050441, PMID 21856155; conditions: cited from earlier work; for PAMPA: pH 7.4, 5 hours, room temperature; for MR (Membrane Retention): percentage of compound unable to reach the acceptor compartment
[3] = set-up: method as in PMID 25469771, PMID 21050441, PMID 21856155; conditions: percentage of unmodified drug, human liver microsomes, 37 °C, 60 min; cited from earlier work
[4] = H2O, 20 °C, 24 hrs; cited from earlier work
Src = molecular target: Src; set-up: method as in PMID 25469771, PMID 21050441, PMID 21856155; conditions: cited from earlier work

Row | SMILES | drug loading [1] | IC50 (SH-SY5Y NB cells; 24 h, read-out: IC50 24 h) [µM] | IC50 (SH-SY5Y NB cells; 48 h, read-out: IC50 48 h) [µM] | IC50 (SH-SY5Y NB cells; 72 h, read-out: IC50 72 h) [µM] | PAMPA [2] | MR (Membrane Retention) [2] [%] | Metabolic Stability [3] [%] | Aqueous Solubility [4] | Ki (Src) [µM]
1 | CSc1nc(NCc2ccccc2)c2cnn(CC(Cl)c3ccccc3)c2n1 (stereo not shown) [Compound 1] | around 6% | 21.8 ± 1.7 | 16.5 ± 1.67 | 13.5 ± 2 | 3.98 10^−6 cm^2/sec | 46.8 | 95.8 | 0,21 μg/mL | –
2 | ClC(Cn1ncc2c(Nc3cccc(Br)c3)nc(SCCN3CCOCC3)nc21)c1ccccc1 (stereo not shown) [Compound 2] | 50% | 12.6 ± 1.6 | 2.66 ± 0.015 | 2.28 ± 0.29 | – | – | 96.0 | – | 0.13
3 | CC(Cn1ncc2c(Nc3cccc(Cl)c3)nc(SCCN3CCOCC3)nc21)c1ccccc1 (stereo not shown) [Compound 3] | – | 3.04 ± 0.09 | 2.65 ± 0.08 | 1.54 ± 1.07 | 5.51 10^−6 cm^2/sec | 48.9 | 97.9 | 0,22 μg/mL | 0.4
4 | CC(C)Sc1nc(Nc2cccc(O)c2)c2cnn(CC(Cl)c3ccccc3)c2n1 (stereo not shown) [Compound 4] | 50% | 13.6 ± 0.94 | 10.1 ± 0.5 | 8.63 ± 0.75 | 4.53 10^−6 cm^2/sec | 49.6 | 93.5 | 0,90 μg/mL | 0.01
